Read-outs that look alike come from different tables or passages of the source.
Key:
[1] = system: molds; settings: 35° C. saturated water vapor
Experimental: Two pinewood boards in each case are dipped into potassium sorbate solution (see table 1 for concentrations) and stored in a saturated water vapor atmosphere at 35° C. In parallel with this, in each case two pinewood boards, after the dipping, were additionally dirtied with soil on the surface in order to achieve greater surface contamination with molds. The boards were individually packed in film in order to exclude cross contaminations and regularly visually examined for fungal infection.

[2] = system: blue stain infection
Source text: Immersion Impregnation with Aqueous Potassium Sorbate Solution Air-dry pine boards are dipped into a solution of 30% potassium sorbate in water for […] of the surface. After the treatment they are air dried.
Air-dried pine boards are, as in example 1, dipped into a solution of 30% potassium sorbate in a mixture of 75% by volume of water and 25% by volume of 1,2-propanediol, further treated and stored.
Air-dried pine boards are sprayed with a spraying pistol with a solution of 20% potassium sorbate in water until the surface is uniformly wet. The boards are then allowed to dry and are stored as in example 1.

[3] = system: fungi; settings: cited from earlier work
[4] = system: wood-damaging fungi; settings: cited from earlier work

For `C/C=C/C=C/C(=O)[O-].[K+]` [potassium sorbate], the Fungal infection ([1]; V1: dwell time 10 min, 1 % by weight solution, without soil) was “no/after 81 days”, the Fungal infection ([1]; V2: dwell time 10 min, 2 % by weight solution, without soil) was “no/after 81 days” and the Fungal infection ([1]; V3: dwell time 10 min, 5 % by weight solution, without soil) was “no/after 81 days”. The Fungal infection ([1]; V4: dwell time 5 min, 10 % by weight solution, without soil) was “no/after 81 days”, the Fungal infection ([1]; V5: dwell time 10 min, 1 % by weight solution, with soil) was “little/from day 43” and the Fungal infection ([1]; V6: dwell time 10 min, 2 % by weight solution, with soil) was “little/from day 53”. For the same molecule, the Fungal infection ([1]; V7: dwell time 10 min, 5 % by weight solution, with soil) was “no/after 81 days”, the Fungal infection ([1]; V8: dwell time 5 min, 10 % by weight solution, with soil) was “no/after 81 days” and the “Fungal infection after storage” value ([2]; pine boards dipped in 30% potassium sorbate in 75% by volume water / 25% by volume 1,2-propanediol, stored as in example 1) was “completely free from fungal infection”. For the same molecule, the “Fungal infection after storage” value ([2]; pine boards dipped in 30% potassium sorbate in water, stored in the open three weeks next to untreated boards) was “remain free from fungal infection” and the “Fungal infection after storage” value ([2]; pine boards sprayed with 20% potassium sorbate in water, stored as in example 1) was “corresponds to that of example 1”.

In the case of `C/C=C/C=C/C(=O)[O-].[Na+]` [sodium sorbate], the “Protection of bamboo against fungal infection” value ([3]; generally, even after a few days) is given as “infection with fungi” and the “Protection of bamboo against fungal infection” value ([3]; pH 3.0) is given as “active”.

For `C/C=C/C=C/C(=O)[O-].C/C=C/C=C/C(=O)[O-].[Zn+2]` [zinc salt of sorbic acid], the “Activity as wood preservative” value [4] is listed as “inactive”.

From patent US20010018454A1, “Method for protecting wood and wooden articles from fungal infection” (priority 2000, published 2001)
